Data: ChEMBL document CHEMBL1201862, “PubChem BioAssay data set” (2004)
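In this assay, cells in 96-well plates receive the compound at five concentrations for 48 hours. Endpoints are linearly interpolated between the surrounding concentrations. GI50 is the concentration that inhibits growth by half.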 Calls of active or inactive are those of the source. Cut-off read from the data, not from the text of the source: active = GI50 up to about 1.1 µM and inactive = higher.

Assays:
Assay in all cases: NCI-60 cell line screen, 48 h
M19-MEL = test system: M19-MEL
UACC-62 = test system: UACC-62
EKVX = test system: EKVX
HCC 2998 = test system: HCC 2998
A549 = test system: A549
SF-295 = test system: SF-295
OVCAR-4 = test system: OVCAR-4
A498 = test system: A498
NCI-H460 = test system: NCI-H460
NCI-H226 = test system: NCI-H226
SK-MEL-2 = test system: SK-MEL-2
NCI-H23 = test system: NCI-H23
LXFL 529 = test system: LXFL 529
MDA-MB-435 = test system: MDA-MB-435
DLD-1 = test system: DLD-1
ACHN = test system: ACHN
HOP-62 = test system: HOP-62
PC-3 = test system: PC-3
MCF7 = test system: MCF7
CAKI-1 = test system: CAKI-1
MDA-N = test system: MDA-N
KM-20L2 = test system: KM-20L2
RXF 393 = test system: RXF 393
LOX IMVI = test system: LOX IMVI
SNB-19 = test system: SNB-19
KM12 = test system: KM12
RPMI-8226 = test system: RPMI-8226
DMS-273 = test system: DMS-273
OVCAR-3 = test system: OVCAR-3
OVCAR-5 = test system: OVCAR-5
HL-60 = test system: HL-60
786-0 = test system: 786-0
TK-10 = test system: TK-10
OVCAR-8 = test system: OVCAR-8
UO-31 = test system: UO-31
T47D = test system: T47D
SNB-78 = test system: SNB-78
HOP-18 = test system: HOP-18
SW-620 = test system: SW-620
NCI-H522 = test system: NCI-H522
SN12C = test system: SN12C
SF-539 = test system: SF-539
SF-268 = test system: SF-268
COLO 205 = test system: COLO 205
Hs-578T = test system: Hs-578T
XF498 = test system: XF498
HCT-116 = test system: HCT-116
K562 = test system: K562
BT-549 = test system: BT-549
UACC-257 = test system: UACC-257
DMS-114 = test system: DMS-114
SK-OV-3 = test system: SK-OV-3
MOLT-4 = test system: MOLT-4
SK-MEL-28 = test system: SK-MEL-28
CCRF-CEM = test system: CCRF-CEM
SR = test system: SR
M14 = test system: M14
HOP-92 = test system: HOP-92
HCT-15 = test system: HCT-15
NCI/ADR-RES = test system: NCI/ADR-RES
SK-MEL-5 = test system: SK-MEL-5
SNB-75 = test system: SNB-75
U-251 = test system: U-251
HT-29 = test system: HT-29
DU-145 = test system: DU-145
MDA-MB-231 = test system: MDA-MB-231
IGROV-1 = test system: IGROV-1
Malme-3M = test system: Malme-3M

## CC(C)(CN1CCCCC1)C(=O)/C=C/c1ccc(/C=C/C(=O)C(C)(C)CN2CCCCC2)cc1
M19-MEL
  GI50: 982 nM (active)
UACC-62
  GI50: 1020 nM (active)
EKVX
  GI50: 1710 nM (inactive)
HCC 2998
  GI50: 350 nM (active)
A549
  GI50: 933 nM (active)
SF-295
  GI50: 661 nM (active)
OVCAR-4
  GI50: 368 nM (active)
A498
  GI50: 1600 nM (inactive)
NCI-H460
  GI50: 684 nM (active)
NCI-H226
  GI50: 1840 nM (inactive)
SK-MEL-2
  GI50: 1250 nM (inactive)
NCI-H23
  GI50: 711 nM (active)
LXFL 529
  GI50: 262 nM (active)
MDA-MB-435
  GI50: 421 nM (active)
DLD-1
  GI50: 142 nM (active)
ACHN
  GI50: 264 nM (active)
HOP-62
  GI50: 946 nM (active)
PC-3
  GI50: 273 nM (active)
MCF7
  GI50: 247 nM (active)
CAKI-1
  GI50: 303 nM (active)
MDA-N
  GI50: 177 nM (active)
KM-20L2
  GI50: 644 nM (active)
RXF 393
  GI50: 280 nM (active)
LOX IMVI
  GI50: 268 nM (active)
SNB-19
  GI50: 1350 nM (inactive)
KM12
  GI50: 434 nM (active)
RPMI-8226
  GI50: 193 nM (active)
DMS-273
  GI50: 361 nM (active)
OVCAR-3
  GI50: 369 nM (active)
OVCAR-5
  GI50: 726 nM (active)
HL-60
  GI50: 116 nM (active)
786-0
  GI50: 446 nM (active)
TK-10
  GI50: 1050 nM (active)
OVCAR-8
  GI50: 1020 nM (active)
UO-31
  GI50: 1140 nM (inactive)
T47D
  GI50: 525 nM (active)
SNB-78
  GI50: 2460 nM (inactive)
HOP-18
  GI50: 1280 nM (inactive)
SW-620
  GI50: 112 nM (active)
NCI-H522
  GI50: 45.4 nM (active)
SN12C
  GI50: 208 nM (active)
SF-539
  GI50: 538 nM (active)
SF-268
  GI50: 413 nM (active)
COLO 205
  GI50: 152 nM (active)
Hs-578T
  GI50: 420 nM (active)
XF498
  GI50: 344 nM (active)
HCT-116
  GI50: 303 nM (active)
K562
  GI50: 103 nM (active)
BT-549
  GI50: 1700 nM (inactive)
UACC-257
  GI50: 1050 nM (active)
DMS-114
  GI50: 701 nM (active)
SK-OV-3
  GI50: 1570 nM (inactive)
MOLT-4
  GI50: 110 nM (active)
SK-MEL-28
  GI50: 1170 nM (inactive)
CCRF-CEM
  GI50: 46.6 nM (active)
SR
  GI50: 103 nM (active)
M14
  GI50: 908 nM (active)
HOP-92
  GI50: 333 nM (active)
HCT-15
  GI50: 204 nM
NCI/ADR-RES
  GI50: 393 nM (active)
SK-MEL-5
  GI50: 1040 nM (active)
SNB-75
  GI50: 673 nM (active)
U-251
  GI50: 273 nM (active)
HT-29
  GI50: 198 nM (active)
DU-145
  GI50: 1940 nM (inactive)
MDA-MB-231
  GI50: 196 nM (active)
IGROV-1
  GI50: 505 nM (active)
Malme-3M
  GI50: 871 nM (active)
